Here are results for 13 molecules from ChEMBL document CHEMBL1140667, “Pyrrolidino-tetrahydroisoquinolines bearing pendant heterocycles as potent dual H3 antagonist and serotonin transporter inhibitors” (Bioorg Med Chem Lett, 2007).

Series [1] concerns the target T1, Histamine H3 receptor (Homo sapiens, UniProt Q9Y5N1). As to the kind of experiment: Binding affinity to human histamine H3 receptor.
Series [2] concerns the target T1, Histamine H3 receptor. As to the kind of experiment: Antagonist activity at human histamine H3 receptor. The series is classed as functional. Conditions: read-out: pA2 (converted).
The nature of series [3]: Drug level in mouse brain at 10 mg/kg, ip after 2 hrs. The series is classed as ADME, organism-based. More on the design: dose 10 mg/kg, route intraperitoneal. The conditions noted are these: read-out: Drug uptake.
For series [4], the target named is Sodium-dependent dopamine transporter (Homo sapiens, UniProt Q01959). As to the kind of experiment: Binding affinity to DAT.
The nature of series [5]: Mean residence time in mouse brain at 10 mg/kg, ip. The series is classed as ADME, organism-based. More on the design: dose 10 mg/kg, route intraperitoneal.
Series [6] relates to Rattus norvegicus. The experiment in a line: Increase in 5-hydroxytryptamine level in rat brain at 3 mg/kg, sc within 4 hrs relative to basal level. Conditions: in vivo. The class given is ADME, organism-based. More on the design: dose 3 mg/kg, route subcutaneous.
The test system of series [7] is Rattus norvegicus. The experiment in a line: Increase in dopamine level in rat brain at 3 mg/kg, sc within 4 hrs relative to basal level. The class given is ADME, organism-based. More on the design: dose 3 mg/kg, route subcutaneous. Conditions: in vivo.
Series [8] is described as follows: Plasma concentration in mouse at 10 mg/kg, ip after 15 mins. More on the design: dose 10 mg/kg, route intraperitoneal. The series is classed as ADME, organism-based.
The target in series [9] is Kappa-type opioid receptor (Homo sapiens, UniProt P41145). The experiment in a line: Binding affinity to kappa opioid receptor.
Series [10] in a line: Mean residence time in mouse plasma at 10 mg/kg, ip. The class given is ADME, organism-based. More on the design: dose 10 mg/kg, route intraperitoneal.
For series [11], the target named is Sodium-dependent noradrenaline transporter (Homo sapiens, UniProt P23975). The experiment in a line: Binding affinity to NET.
A short description of series [12]: Ratio of log AUC in brain to plasma in mouse at 10 mg/kg, ip. The class given is ADME, organism-based. More on the design: dose 10 mg/kg, route intraperitoneal. The conditions noted are these: brain and plasma, read-out: BPR.

T1 sequence (Q9Y5N1 whole entry): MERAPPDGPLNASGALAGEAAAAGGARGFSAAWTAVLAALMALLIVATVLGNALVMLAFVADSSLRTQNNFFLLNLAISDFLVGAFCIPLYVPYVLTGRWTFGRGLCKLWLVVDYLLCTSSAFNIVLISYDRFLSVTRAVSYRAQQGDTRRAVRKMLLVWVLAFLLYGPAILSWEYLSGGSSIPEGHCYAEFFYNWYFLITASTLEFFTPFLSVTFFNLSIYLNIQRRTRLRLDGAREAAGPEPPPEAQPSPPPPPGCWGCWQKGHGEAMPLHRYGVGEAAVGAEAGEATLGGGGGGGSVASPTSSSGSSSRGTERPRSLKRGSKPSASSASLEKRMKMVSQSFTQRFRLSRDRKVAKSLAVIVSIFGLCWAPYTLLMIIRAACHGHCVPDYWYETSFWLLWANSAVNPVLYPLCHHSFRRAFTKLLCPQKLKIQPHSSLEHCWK
Chain of Kappa-type opioid receptor (P41145 whole entry): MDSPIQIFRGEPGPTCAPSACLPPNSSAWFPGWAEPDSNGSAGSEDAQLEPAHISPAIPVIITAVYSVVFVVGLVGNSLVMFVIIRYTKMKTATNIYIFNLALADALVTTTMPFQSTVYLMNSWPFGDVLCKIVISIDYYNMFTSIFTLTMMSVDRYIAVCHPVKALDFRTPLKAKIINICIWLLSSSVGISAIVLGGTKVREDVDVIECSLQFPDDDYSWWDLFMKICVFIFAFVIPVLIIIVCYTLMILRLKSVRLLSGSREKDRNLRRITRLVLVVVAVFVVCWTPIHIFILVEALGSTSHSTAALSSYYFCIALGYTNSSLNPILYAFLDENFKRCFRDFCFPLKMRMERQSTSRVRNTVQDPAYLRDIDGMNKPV
Chain of Sodium-dependent dopamine transporter (Q01959 whole entry): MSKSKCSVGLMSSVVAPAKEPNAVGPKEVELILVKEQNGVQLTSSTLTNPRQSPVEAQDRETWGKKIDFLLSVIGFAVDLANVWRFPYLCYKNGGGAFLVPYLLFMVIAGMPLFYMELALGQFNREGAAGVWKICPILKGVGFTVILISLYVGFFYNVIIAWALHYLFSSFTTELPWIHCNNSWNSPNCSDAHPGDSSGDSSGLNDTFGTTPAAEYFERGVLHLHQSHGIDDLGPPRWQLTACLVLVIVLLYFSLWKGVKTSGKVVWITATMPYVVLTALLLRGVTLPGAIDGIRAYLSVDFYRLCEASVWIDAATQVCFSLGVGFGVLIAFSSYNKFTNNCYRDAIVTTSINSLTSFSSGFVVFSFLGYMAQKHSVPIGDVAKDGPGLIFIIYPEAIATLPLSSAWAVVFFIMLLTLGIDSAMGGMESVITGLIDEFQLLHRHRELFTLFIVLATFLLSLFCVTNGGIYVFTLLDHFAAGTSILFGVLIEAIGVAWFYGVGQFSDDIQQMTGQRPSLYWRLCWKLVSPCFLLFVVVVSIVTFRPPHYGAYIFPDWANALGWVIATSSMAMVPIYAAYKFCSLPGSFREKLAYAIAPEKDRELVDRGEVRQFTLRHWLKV
Chain of Sodium-dependent noradrenaline transporter (P23975 whole entry): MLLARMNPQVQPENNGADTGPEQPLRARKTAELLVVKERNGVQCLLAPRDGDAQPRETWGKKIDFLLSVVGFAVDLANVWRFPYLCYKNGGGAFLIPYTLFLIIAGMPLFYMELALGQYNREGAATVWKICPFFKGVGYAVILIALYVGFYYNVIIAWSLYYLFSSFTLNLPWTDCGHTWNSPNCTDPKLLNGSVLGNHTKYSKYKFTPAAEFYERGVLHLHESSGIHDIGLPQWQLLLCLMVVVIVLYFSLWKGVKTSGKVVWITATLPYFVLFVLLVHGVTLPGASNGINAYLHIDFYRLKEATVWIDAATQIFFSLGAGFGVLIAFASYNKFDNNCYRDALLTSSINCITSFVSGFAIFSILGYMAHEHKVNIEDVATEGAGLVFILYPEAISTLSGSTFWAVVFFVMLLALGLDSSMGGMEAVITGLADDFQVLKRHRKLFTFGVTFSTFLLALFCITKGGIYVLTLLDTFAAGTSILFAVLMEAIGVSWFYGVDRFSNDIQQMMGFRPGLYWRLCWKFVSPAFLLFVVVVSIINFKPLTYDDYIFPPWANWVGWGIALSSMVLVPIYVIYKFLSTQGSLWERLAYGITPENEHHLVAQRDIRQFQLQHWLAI

For `c1ncc([C@@H]2CN3CCC[C@@H]3c3cc(OCCCN4CCOCC4)ccc32)s1`, the inhibitory constant (Ki) in series [1] was found to be 3.7 nM. Also, the Kb in series [2] is 3.16 nM.
The molecule `c1ccn2c([C@@H]3CN4CCC[C@@H]4c4cc(OCCCN5CCOCC5)ccc43)cnc2c1` displayed a Ki in series [1] of 2 nM. Further, the Kb in series [2] is 3.16 nM.
The corresponding values for `c1cnc([C@@H]2CN3CCC[C@@H]3c3cc(OCCCN4CCOCC4)ccc32)cn1` are 4 nM and 3.16 nM.
For `c1cnn(-c2ccc([C@@H]3CN4CCC[C@@H]4c4cc(OCCCN5CCOCC5)ccc43)cc2)c1`, in that order: 5.3 nM and 3.16 nM.
For `c1cc([C@@H]2CN3CCC[C@@H]3c3cc(OCCCN4CCCCC4)ccc32)ccn1`, in that order: 1 nM and 3.16 nM.
Molecule `c1ccc([C@@H]2CN3CCC[C@@H]3c3cc(OCCCN4CCCCC4)ccc32)nc1` returned a Ki in [1] of 0.8 nM. Moreover, the Kb in [2] was 3.16 nM.
The corresponding values for `c1ccc([C@@H]2CN3CCC[C@@H]3c3cc(OCCCN4CCOCC4)ccc32)nc1` are 2.7 nM and 3.16 nM.
The corresponding values for `c1csc([C@@H]2CN3CCC[C@@H]3c3cc(OCCCN4CCOCC4)ccc32)n1` are 3.3 nM and 3.16 nM.
In turn, `c1cc([C@@H]2CN3CCC[C@@H]3c3cc(OCCCN4CCOCC4)ccc32)[nH]n1` registered a Ki in [1] of 4 nM. For the same molecule, in series [2], the Kb was 3.16 nM.
For `c1cc([C@@H]2CN3CCC[C@@H]3c3cc(OCCCN4CCOCC4)ccc32)cs1`, in that order: 3 nM and 3.16 nM.
As for `c1cncc([C@@H]2CN3CCC[C@@H]3c3cc(OCCCN4CCOCC4)ccc32)c1`, in series [1], the Ki turned out to be 1.6 nM. Moreover, the Kb in series [2] is 3.16 nM.
The corresponding values for `c1cn(-c2ccc([C@@H]3CN4CCC[C@@H]4c4cc(OCCCN5CCOCC5)ccc43)cc2)cn1` are 5.7 nM and 3.16 nM.
Turning to `c1cncc([C@@H]2CN3CCC[C@@H]3c3cc(OCCCN4CCCCC4)ccc32)c1`, the Ki in [1] amounted to 0.8 nM; in series [4], 107 nM; in series [9], 74 nM; in series [11] it was 460 nM. Further, in series [3], the concentration at 2 h was determined as 920 nM. The MRT came to 31.3 h in series [5] and 6.57 h in series [10]. The Activity in series [6] is 300%; in series [7] it was 500%. In series [8], the concentration at 0.25 h was 1430 nM. Also, the Kp in series [12] came to 0.75. The Kb in series [2] was 3.16 nM.

By Ki is commonly meant the dissociation constant of the complex between target and ligand, obtained from inhibition or displacement. By MRT is commonly meant a mean duration of stay, worked out from the concentration-time curve.
